# In publication PMC6429436 (Bioconjugate Chemistry, 2019):
# Several values for one entry are separate records, joined by “and”; a condition that tells them apart may be missing. Equal entries are not always repeated.
# Assays:
# cholera toxin B-subunit = cholera toxin B-subunit (Vibrio cholerae serotype O1, UniProt P01556); assay: biochemical; format: binding
# [1] = test system: CT-induced swelling of intestinal organoids; assay: cells; format: cell-based, human
# CTB = conditions: LeY-CTB binding, secondary binding site; cited from earlier work
# Chain of cholera toxin B-subunit (P01556 22-124 limits assumed): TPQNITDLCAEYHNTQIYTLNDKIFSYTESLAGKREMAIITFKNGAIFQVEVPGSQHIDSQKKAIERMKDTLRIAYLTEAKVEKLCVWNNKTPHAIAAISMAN
SMILES,rel. pot. (cholera toxin B-subunit),rel. pot. per sugar (cholera toxin B-subunit),IC50 (cholera toxin B-subunit; IC50 (μg/mL)) [mM],rel. pot. [1],rel. pot. per sugar [1],IC50 ([1]; Homo sapiens),Kd (CTB) [mM]
O=C[C@H](O)[C@@H](O)[C@@H](O)[C@H](O)CO [galactose],1,1,111,1,1,100 mM and 18000 µg/mL,
CC(=O)N[C@@H]1[C@@H](O[C@@H]2O[C@@H](C)[C@@H](O)[C@@H](O)[C@@H]2O)[C@H](O[C@@H]2O[C@H](CO)[C@H](O)[C@H](O)[C@H]2O[C@@H]2O[C@@H](C)[C@@H](O)[C@@H](O)[C@@H]2O)[C@@H](CO)O[C@H]1O [LeY],,,,,,,1.4
